# Like-named read-outs stand apart in the source and are kept apart here.
# Columns and labels:
# [1] = system: endothelial nitric oxide synthase (eNOS) genetic expression in HUVECs; experiment: Relative eNOS genetic expression amount in HUVECs (OneStep real-time RT-PCR, Taqman probe, ddCt method); type: cell-based; conditions: 24 hours; for Relative eNOS genetic expression amount, Significant difference: vs control example 1, Dunnett's test; for fold induction at 1 µM / fold induction at 30 µM: Homo sapiens, HUVEC; for action for promoting production of endothelial nitric oxide synthase (conclusion in words): 30 μM
# Description: HUVECs (made by Lonza; catalog no.: C2519AS)
# EGM-2 (made by Lonza; catalog no.: CC-3162)
# The substances under test in (1) to (3) below were each dissolved in dimethyl sulfoxide (DMSO) (made by Nacalai Tesque) to prepare solutions having a concentration of 30 mM, and the solutions were added to the culture medium at a 1/1000 proportion to prepare culture media in which the target final concentration of the respective substances under test was 30 μM (Examples 1 to 3).
# • (1) Tetradecanoic acid (C14:0) (purity: 100%; made by Sigma-Aldrich) • (2) Pentadecanoic acid (C15:0) (purity: 98.8%; made by Sigma-Aldrich) • (3) Tridecanoic acid (C13:0) (purity: 99.2%; made by Sigma-Aldrich) • (4) Fluvastatin (made by Tokyo Chemical Industry Co., Ltd.; model no.: F0820)
# The HUVECs were thawed in a T75 flask and cultured in a CO2 incubator (“SCA-165DRS” made by Astec Co., Ltd.; conditions: 37 °C, 5% CO2, humid; same below) using the EGM-2. The cells were isolated using a 0.05% concentration trypsin solution (“Trypsin-EDTA (0.05%), phenol red” made by Thermo Fisher Scientific; catalog no.: 25300054), sown in a 96-well plate using the culture medium, and cultured in the CO2 incubator. The next day, the culture medium was replaced with the culture media prepared in section “(3. Preparation of substances under test)” above, and the cells were then cultured for 24 hours in the CO2 incubator to carry out treatment using the substances under test.
# [5. RNA Extraction, qPCR]
# After the treatment, a culture medium supernatant was recovered, RNA was extracted from the cells using a FastLane Cell Probe kit (made by QIAGEN; catalog no.: 215011), OneStep real-time RT-PCR was carried out using a Taqman probe, and the relative eNOS genetic expression amount was calculated by means of the ddCt method. The relative eNOS genetic expression amount was derived by dividing the eNOS genetic expression amount by the GAPDH genetic expression amount.
# A significant difference between the substance-under-test treatment groups (control example 2 and the examples) and control example 1 was certified by means of Dunnett's test.
# [2] = system: endothelial nitric oxide synthase; conditions: positive control; stated as known; cited from earlier work
# [3] = 30 μM final concentration, average of n1-n5, control example 1 (none added) = 1.00, read-out: Relative eNOS genetic expression amount, Average value of n1-n5
# [4] = 30 μM final concentration, replicate n1, eNOS/GAPDH, relative to control example 1, read-out: Relative eNOS genetic expression amount, n1
# [5] = 30 μM final concentration, replicate n2, eNOS/GAPDH, relative to control example 1, read-out: Relative eNOS genetic expression amount, n2
# [6] = 30 μM final concentration, replicate n3, eNOS/GAPDH, relative to control example 1, read-out: Relative eNOS genetic expression amount, n3
# [7] = 30 μM final concentration, replicate n4, eNOS/GAPDH, relative to control example 1, read-out: Relative eNOS genetic expression amount, n4
# [8] = 30 μM final concentration, replicate n5, eNOS/GAPDH, relative to control example 1, read-out: Relative eNOS genetic expression amount, n5
Compound,"Relative eNOS genetic expression amount (in words) ([1]; 1 μM (control example 2), compared with control example 1)","Relative eNOS genetic expression amount, Significant difference ([1]; 1 μM final concentration (positive control))","fold induction at 1 µM ([1]; 1 μM final concentration (positive control), average of n1-n5, control example 1 (none added) = 1.00, read-out: Relative eNOS genetic expression amount, Average value of n1-n5)","fold induction at 1 µM ([1]; 1 μM final concentration (positive control), replicate n1, eNOS/GAPDH, relative to control example 1, read-out: Relative eNOS genetic expression amount, n1)","fold induction at 1 µM ([1]; 1 μM final concentration (positive control), replicate n2, eNOS/GAPDH, relative to control example 1, read-out: Relative eNOS genetic expression amount, n2)","fold induction at 1 µM ([1]; 1 μM final concentration (positive control), replicate n3, eNOS/GAPDH, relative to control example 1, read-out: Relative eNOS genetic expression amount, n3)","fold induction at 1 µM ([1]; 1 μM final concentration (positive control), replicate n4, eNOS/GAPDH, relative to control example 1, read-out: Relative eNOS genetic expression amount, n4)","fold induction at 1 µM ([1]; 1 μM final concentration (positive control), replicate n5, eNOS/GAPDH, relative to control example 1, read-out: Relative eNOS genetic expression amount, n5)",known action for promoting the production of endothelial nitric oxide synthase [2],"Relative eNOS genetic expression amount, Significant difference ([1]; 30 μM final concentration)",action for promoting production of endothelial nitric oxide synthase (conclusion in words) [1],"fold induction at 30 µM [1, 3]","fold induction at 30 µM [1, 4]","fold induction at 30 µM [1, 5]","fold induction at 30 µM [1, 6]","fold induction at 30 µM [1, 7]","fold induction at 30 µM [1, 8]"
"CC(C)n1c(/C=C/C(O)CC(O)CC(=O)O)c(-c2ccc(F)cc2)c2ccccc21 (stereo not drawn) [Fluvastatin, reference compound]",significantly higher than that in control example 1,** (Level of significance across both sides: 1%),2.62,2.45,2.57,2.57,2.89,2.61,known to have an action for promoting the production of endothelial nitric oxide synthase,,,,,,,,
"CCCCCCCCCCCCC(=O)O [Example 3, Tridecanoic acid]",,,,,,,,,,** (Level of significance across both sides: 1%),have an action for promoting production of endothelial nitric oxide synthase,1.25,1.15,1.33,1.26,1.28,1.24
"CCCCCCCCCCCCCC(=O)O [Example 1, Tetradecanoic acid]",,,,,,,,,,** (Level of significance across both sides: 1%),have an action for promoting production of endothelial nitric oxide synthase,1.26,1.27,1.26,1.31,1.12,1.33
"CCCCCCCCCCCCCCC(=O)O [Example 2, Pentadecanoic acid]",,,,,,,,,,** (Level of significance across both sides: 1%),have an action for promoting production of endothelial nitric oxide synthase,1.26,1.15,1.28,1.2,1.36,1.3

# — US20260364038A1, “VASODILATOR, NITRIC OXIDE SYNTHASE PRODUCTION PROMOTER, AND USE OF SAME” (J-OIL MILLS, INC., priority 2022, published 2026)
